{
  "source": "ChEMBL document CHEMBL1201862",
  "about": "“PubChem BioAssay data set” (2004)",
  "test_in_all_cases": "inhibition of tumour cell growth, NCI panel, 48 h",
  "key": {"[1]": {"system": "Malme-3M"}, "[2]": {"system": "SK-OV-3"}, "[3]": {"system": "SK-MEL-5"}, "[4]": {"system": "U-251"}, "[5]": {"system": "SF-539"}, "[6]": {"system": "LXFL 529"}, "[7]": {"system": "DMS-114"}, "[8]": {"system": "ACHN"}, "[9]": {"system": "SNB-78"}, "[10]": {"system": "CCRF-CEM"}, "[11]": {"system": "NCI-H23"}, "[12]": {"system": "DLD-1"}, "[13]": {"system": "HOP-62"}, "[14]": {"system": "MOLT-4"}, "[15]": {"system": "KM12"}, "[16]": {"system": "HOP-92"}, "[17]": {"system": "DMS-273"}, "[18]": {"system": "NCI-H522"}, "[19]": {"system": "SF-268"}, "[20]": {"system": "OVCAR-4"}, "[21]": {"system": "XF498"}, "[22]": {"system": "SF-295"}, "[23]": {"system": "UO-31"}, "[24]": {"system": "HT-29"}, "[25]": {"system": "SR"}, "[26]": {"system": "A549"}, "[27]": {"system": "UACC-62"}, "[28]": {"system": "M19-MEL"}, "[29]": {"system": "CAKI-1"}, "[30]": {"system": "SW-620"}, "[31]": {"system": "HL-60"}, "[32]": {"system": "RXF 393"}, "[33]": {"system": "IGROV-1"}, "[34]": {"system": "SNB-75"}, "[35]": {"system": "COLO 205"}, "[36]": {"system": "NCI-H226"}, "[37]": {"system": "OVCAR-5"}, "[38]": {"system": "SN12C"}, "[39]": {"system": "RXF 631"}, "[40]": {"system": "NCI-H460"}, "[41]": {"system": "OVCAR-3"}, "[42]": {"system": "786-0"}, "[43]": {"system": "A498"}, "[44]": {"system": "HCT-15"}, "[45]": {"system": "LOX IMVI"}, "[46]": {"system": "UACC-257"}, "[47]": {"system": "K562"}, "[48]": {"system": "HCC 2998"}, "[49]": {"system": "SK-MEL-28"}, "[50]": {"system": "SNB-19"}, "[51]": {"system": "OVCAR-8"}, "[52]": {"system": "EKVX"}, "[53]": {"system": "TK-10"}, "[54]": {"system": "HCT-116"}, "[55]": {"system": "M14"}, "[56]": {"system": "KM-20L2"}, "[57]": {"system": "HOP-18"}, "[58]": {"system": "SK-MEL-2"}},
  "note": "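Test compounds were applied to cells in 96-well plates for 48 hours at 5 doses. At the GI50, growth is halved.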 Activity calls are given as the source filed them. Cut-off read from the data, not from the text of the source: active = GI50 up to about 1.1 µM and inactive = higher.",
  "data": [
    {"compound": "Cc1cccc(C(C)C)c1N1C(=O)C(=O)C(c2nc3ccccc3o2)C(=O)C1=O", "values": [
      {"measurement": "GI50", "setting": "[1]", "value": "> 100 µM (inactive)"},
      {"measurement": "GI50", "setting": "[2]", "value": "> 100 µM (inactive)"},
      {"measurement": "GI50", "setting": "[3]", "value": "60.1 µM (inactive)"},
      {"measurement": "GI50", "setting": "[4]", "value": "89.3 µM (inactive)"},
      {"measurement": "GI50", "setting": "[5]", "value": "> 100 µM (inactive)"},
      {"measurement": "GI50", "setting": "[6]", "value": "61.1 µM (inactive)"},
      {"measurement": "GI50", "setting": "[7]", "value": "24.7 µM (inactive)"},
      {"measurement": "GI50", "setting": "[8]", "value": "> 100 µM (inactive)"},
      {"measurement": "GI50", "setting": "[9]", "value": "> 100 µM (inactive)"},
      {"measurement": "GI50", "setting": "[10]", "value": "20.2 µM (inactive)"},
      {"measurement": "GI50", "setting": "[11]", "value": "80.2 µM (inactive)"},
      {"measurement": "GI50", "setting": "[12]", "value": "39.4 µM (inactive)"},
      {"measurement": "GI50", "setting": "[13]", "value": "> 100 µM (inactive)"},
      {"measurement": "GI50", "setting": "[14]", "value": "24.7 µM (inactive)"},
      {"measurement": "GI50", "setting": "[15]", "value": "> 100 µM (inactive)"},
      {"measurement": "GI50", "setting": "[16]", "value": "> 100 µM (inactive)"},
      {"measurement": "GI50", "setting": "[17]", "value": "93.8 µM (inactive)"},
      {"measurement": "GI50", "setting": "[18]", "value": "29.5 µM (inactive)"},
      {"measurement": "GI50", "setting": "[19]", "value": "> 100 µM (inactive)"},
      {"measurement": "GI50", "setting": "[20]", "value": "> 100 µM (inactive)"},
      {"measurement": "GI50", "setting": "[21]", "value": "21.1 µM (inactive)"},
      {"measurement": "GI50", "setting": "[22]", "value": "> 100 µM (inactive)"},
      {"measurement": "GI50", "setting": "[23]", "value": "> 100 µM (inactive)"},
      {"measurement": "GI50", "setting": "[24]", "value": "56.2 µM (inactive)"},
      {"measurement": "GI50", "setting": "[25]", "value": "70 µM (inactive)"},
      {"measurement": "GI50", "setting": "[26]", "value": "> 100 µM (inactive)"},
      {"measurement": "GI50", "setting": "[27]", "value": "61 µM (inactive)"},
      {"measurement": "GI50", "setting": "[28]", "value": "55.3 µM (inactive)"},
      {"measurement": "GI50", "setting": "[29]", "value": "> 100 µM (inactive)"},
      {"measurement": "GI50", "setting": "[30]", "value": "56.8 µM (inactive)"},
      {"measurement": "GI50", "setting": "[31]", "value": "30.3 µM (inactive)"},
      {"measurement": "GI50", "setting": "[32]", "value": "21.4 µM (inactive)"},
      {"measurement": "GI50", "setting": "[33]", "value": "> 100 µM (inactive)"},
      {"measurement": "GI50", "setting": "[34]", "value": "26.9 µM (inactive)"},
      {"measurement": "GI50", "setting": "[35]", "value": "41.8 µM (inactive)"},
      {"measurement": "GI50", "setting": "[36]", "value": "> 100 µM (inactive)"},
      {"measurement": "GI50", "setting": "[37]", "value": "> 100 µM (inactive)"},
      {"measurement": "GI50", "setting": "[38]", "value": "> 100 µM (inactive)"},
      {"measurement": "GI50", "setting": "[39]", "value": "27.2 µM (inactive)"},
      {"measurement": "GI50", "setting": "[40]", "value": "76.7 µM (inactive)"},
      {"measurement": "GI50", "setting": "[41]", "value": "32.1 µM (inactive)"},
      {"measurement": "GI50", "setting": "[42]", "value": "> 100 µM (inactive)"},
      {"measurement": "GI50", "setting": "[43]", "value": "> 100 µM (inactive)"},
      {"measurement": "GI50", "setting": "[44]", "value": 35.5, "unit": "µM"},
      {"measurement": "GI50", "setting": "[45]", "value": "41.7 µM (inactive)"},
      {"measurement": "GI50", "setting": "[46]", "value": "51.9 µM (inactive)"},
      {"measurement": "GI50", "setting": "[47]", "value": "49 µM (inactive)"},
      {"measurement": "GI50", "setting": "[48]", "value": "95.7 µM (inactive)"},
      {"measurement": "GI50", "setting": "[49]", "value": "> 100 µM (inactive)"},
      {"measurement": "GI50", "setting": "[50]", "value": "> 100 µM (inactive)"},
      {"measurement": "GI50", "setting": "[51]", "value": "> 100 µM (inactive)"},
      {"measurement": "GI50", "setting": "[52]", "value": "42.7 µM (inactive)"},
      {"measurement": "GI50", "setting": "[53]", "value": "> 100 µM (inactive)"},
      {"measurement": "GI50", "setting": "[54]", "value": "53.7 µM (inactive)"},
      {"measurement": "GI50", "setting": "[55]", "value": "> 100 µM (inactive)"},
      {"measurement": "GI50", "setting": "[56]", "value": "35.4 µM (inactive)"},
      {"measurement": "GI50", "setting": "[57]", "value": "> 100 µM (inactive)"},
      {"measurement": "GI50", "setting": "[58]", "value": "> 100 µM (inactive)"}
    ]}
  ]
}
